Reference: US7304057B2, “Substituted 6-membered N-heterocyclic compounds and method for their use as neurological regulator” (Institute of Pharmacology and Toxicology Accademy of …, priority 2001, dated 2007)

Columns and labels:
[1] = test system: mice sympathetic nerve endings damaged by 6-hydroxy-dopamine (6-OHDA); assay: adult mice sympathetic nerve endings damaged by 6-OHDA, residual noradrenaline in submaxillary glands; format: in vivo; conditions: 5 mg/kg sc, 6-OHDA 8 mg/kg ip, Kunming female mice; FIG. 3, **P<0.01 vs model control group
Experimental: The neurotrophic activity of the compounds of the present invention can also be determined in several animal pharmacological models in vivo, such as the model of adult mice sympathetic nerve endings damaged by 6-hydroxy-dopamine (6-OHDA).
Kunming species female mice (♀) having a body weight of 18-22 g are randomly divided into the following groups: normal control group, model control group, FK506 (2 mg/kg) group, and the group of compound of the present invention (5 mg/kg) (10 mice per group). The mice are administrated with 6-OHDA (8 mg/kg) by intraperitoneal injection (ip) before 4 hours and after 4 continuous days of subcutaneous injection (sc) of the compound, while the control groups are administrated with the equivalent quantity of carrier by subcutaneous injection. After two weeks of the last administration, the mice are killed by luxation, and the two submaxillary glands of each of the mice are rapidly excised and weighed, placed in a glass grinder, then is homogenated with a homogenating liquid containing internal-standard, and centrifuged at 2000 g for 30 minutes. 20 μL of the obtained supernatant is directly injected in an HPLC-electrochemical detector to measure the content of noradrenaline (NE) in the submaxillary glands of the mice.

[2] = test system: chick embryos dorsal root ganglia; assay: chick embryo dorsal root ganglion cultures free of serum, neurite process scoring; format: cell-based; conditions: 48 h; for Average scoring: score 0-3 of neurite processes, average of 20 ganglia, NGF-only control 1.0
Experimental: The neurotrophic activity of compounds of the present invention can be determined through several biological models in vitro, e.g. the model of chick embryos dorsal root ganglion cultures free of serum in vitro.
In a sterile environment, dorsal root ganglia were dissected from chick embryos of 8 days gestation and inoculated in rat rail collagen coated culture bottles (5 to 6 dorsal root ganglia per bottle, and two bottles per dosage). After 1 hour of attachment in a 37° C., 5% CO2 incubator, NGF (0.30 ng/ml) containing culture medium free of serum (DMEM) and the compound of example 4 of the present invention were added. The control groups were treated only with the same amount of NGF and culture medium. […] The representative micrographic pictures showing that compound of example 4 promotes the growth of chick embryos dorsal root ganglia processes were give in FIG. 1. The results of illustrative compound of example 4 at different concentrations promoting the growth of chick embryos dorsal root ganglia processes were outlined in table 1, wherein the scoring is the average scoring of 20 ganglia.

`CCOC(=O)C(CC(C)C)NC(=O)[C@@H]1CSCCN1S(=O)(=O)c1ccc(C)cc1` (stereo partly drawn) [Example 4, 2-{[(3R)-4-(4-toluenesulfonyl)thiomorpholine-3-carbonyl]amino}-4-methyl-pentanoic acid ethyl ester] was tested, and the “residual NE level in the submaxillary glands” value [1] was “raise the residual NE level in the submaxillary glands of the mice”, the Average scoring ([2]; 0.1 pM compound + NGF (0.3 ng/mL)) was 2.15 and the Average scoring ([2]; 1.0 pM compound + NGF (0.3 ng/mL)) was 2.16. The Average scoring ([2]; 10 pM compound + NGF (0.30 ng/mL)) was 1.50 and the “growth of chick embryos dorsal root ganglia processes” value ([2]; concentration of from 0.1 to 1.0 pmol/L, with NGF (0.30 ng/ml)) was “promote the growth of chick embryos dorsal root ganglia processes”.
